Experimental data published in US9884063B2, “Amido-substituted azole compounds” (Bayer Pharma Aktiengesellschaft, priority 2014, dated 2018).
pIC50: −log10 of the molar value.

Experiments:
[1] = test system: wildtype Wnt signaling cascade; test: HEK293 TOP Assay (Super TopFlash luciferase reporter, Wnt-3a stimulated); format: cell-based; conditions: Homo sapiens, HEK293, 16 h
How it was run: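 HEK293 cells stably carrying Super TopFlash (TOP) or FOP reporter, stimulated with recombinant human Wnt-3a (2500–5 ng/ml, two-fold steps). Both lines incubated in parallel with compound from 50 μM to 15 nM (3.16-fold) in CAFTY buffer pH 7.4 with 2 mM Ca2+ and 0.01% BSA; selectivity judged TOP vs FOP.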

TNKS2 = biological target: T1, TNKS2 (Homo sapiens, UniProt Q9H2K2); test: Modified TNKS2 Assay 2 (auto-parsylation, [3H]-NAD+ SPA); format: biochemical; conditions: 6 nM TNKS2, 96 well
T1 sequence (Q9H2K2 1-1166): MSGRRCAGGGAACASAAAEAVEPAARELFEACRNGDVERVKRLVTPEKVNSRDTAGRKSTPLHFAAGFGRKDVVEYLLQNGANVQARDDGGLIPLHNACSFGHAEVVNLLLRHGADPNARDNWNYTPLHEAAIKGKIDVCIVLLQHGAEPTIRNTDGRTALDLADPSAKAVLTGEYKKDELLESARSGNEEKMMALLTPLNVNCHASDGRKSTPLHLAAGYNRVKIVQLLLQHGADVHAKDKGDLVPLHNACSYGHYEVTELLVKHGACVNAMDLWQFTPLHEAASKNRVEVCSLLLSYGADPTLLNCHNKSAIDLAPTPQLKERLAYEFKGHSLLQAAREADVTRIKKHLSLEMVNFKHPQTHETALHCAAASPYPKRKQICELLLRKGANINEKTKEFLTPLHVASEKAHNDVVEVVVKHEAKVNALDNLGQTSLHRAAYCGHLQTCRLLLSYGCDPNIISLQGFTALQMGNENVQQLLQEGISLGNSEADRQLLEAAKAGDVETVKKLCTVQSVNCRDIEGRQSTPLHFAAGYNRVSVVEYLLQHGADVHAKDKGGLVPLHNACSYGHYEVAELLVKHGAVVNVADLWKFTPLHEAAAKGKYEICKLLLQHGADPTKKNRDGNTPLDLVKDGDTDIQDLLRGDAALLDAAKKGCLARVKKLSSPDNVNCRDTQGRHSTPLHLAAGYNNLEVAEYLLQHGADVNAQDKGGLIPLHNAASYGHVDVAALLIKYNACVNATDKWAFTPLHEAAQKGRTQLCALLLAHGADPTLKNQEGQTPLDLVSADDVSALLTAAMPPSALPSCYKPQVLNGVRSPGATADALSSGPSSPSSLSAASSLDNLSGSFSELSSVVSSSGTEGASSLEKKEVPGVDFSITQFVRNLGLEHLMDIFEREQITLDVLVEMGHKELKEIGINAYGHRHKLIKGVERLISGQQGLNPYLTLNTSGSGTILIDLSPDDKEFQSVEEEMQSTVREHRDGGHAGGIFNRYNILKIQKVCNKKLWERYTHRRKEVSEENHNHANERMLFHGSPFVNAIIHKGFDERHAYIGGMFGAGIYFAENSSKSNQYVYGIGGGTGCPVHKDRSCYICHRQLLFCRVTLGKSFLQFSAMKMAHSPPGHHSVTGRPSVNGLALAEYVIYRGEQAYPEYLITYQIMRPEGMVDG
Method: The potency of selected compounds according to the invention was assessed applying an modified in vitro inhibition assay. Here, the TNKS2 catalyzed NAD^+-dependent ribosylation of the enzyme itself (auto-parsylation) was detected using [^3H]-NAD^+ as substrate and applying the scintillation proximity assay (SPA) method to detect tritium-labeled, parsylated TNKS2. The intensity of the readout signal is proportional to the incorporated [^3H]-NAD^+. Inhibition of TNKS2 leads to a decreased incorporation of [^3H]-NAD^+ and consequently to a lower readout signal intensity. The concentration of a test compound which inhibits the enzyme activity by 50% (corresponds to half of the normed readout signal intensity) is reported as IC50.
The assay was conducted in a 96 well MTP format with the identical TNKS2 enzyme sample and NAD^+ sample as in the histone ribosylation assay with the following modifications: TNKS2 enzyme sample was diluted with a modified assay buffer (50 mM MES pH 7.0, 1 mM DTT, 0.01% Triton X-100) to a final concentration of 6 nM TNKS2 and 10×NAD^+ solution was diluted with the modified assay buffer (s. above) to a final 0.445×NAD^+ solution doped with 100 Bq/ul [^3H]-NAD^+ [Catalog #NET443H050UC, Perkin Elmer, Waltham, Mass., USA]. Substrate solution (10 ul) was incubated with different test compound concentrations (2.5 ul in 10% DMSO in modified assay buffer) or control (2.5 ul 10% DMSO in modified assay buffer only) and enzyme (10 ul) over night at room temperature. Incorporated tritium was measured after addition of 50 ul SPA beads (1 mg/ml) [Catalog #RPNQ0095 20 mg/ml, Perkin Elmer, Waltham, Mass., USA; diluted 1:10 with Dulbecco's phosphate buffered saline, PBS Catalog #D8537, Sigma-Aldrich, Steinheim, Germany] and detection of the photon emission with a beta count plate reader [Wallac MicroBeta®, Perkin Elmer, Waltham, Mass., USA].

[2] = test system: HEK293 FOP control reporter cell line; test: HEK293 FOP Assay (FOP control vector luciferase reporter); format: cell-based; conditions: Homo sapiens
Method: In a parallel approach, HEK293 cells were cotransfected with the FOP control vector and pcDNA3. The FOP vector is identical to the TOP construct, but it contains instead of functional TCF elements a randomized, non-functional sequence. For this transfection a stable transfected cell line was generated as well, based on selection with Geneticin (1 mg/ml).
In preparation of the assay, the two cell lines were plated 24 hrs before beginning the test at 10000 cells per well in a 384 micro titre plate (MTP) in 30 μl growth medium. […] The recombinant human Wnt-3a was thereby applied between 2500 and 5 ng/ml in two-fold dilution steps.
Selective inhibitory activity for small molecules on the wildtype Wnt pathway was determined after parallel incubation of both (TOP and FOP) HEK293 reporter cell lines with a compound dilution series from 50 μM to 15 nM in steps of 3.16-fold dilutions in CAFTY buffer (130 mM sodium chloride, 5 mM potassium chloride, 20 mM HEPES, 1 mM magnesium chloride, 5 mM sodium bicarbonate, pH 7.4) containing 2 mM Ca^2+ and 0.01% BSA.
The compounds were thereby serially prediluted in 100% DMSO and thereafter 50 fold into the CAFTY compound dilution buffer (described above).

[3] = HEK293 TOP reporter cell line, Wnt-3a at EC50, 16 hours incubation, compound dilution series 50 μM to 15 nM
[4] = HEK293 FOP control reporter cells, 16 hours, luciferase, dilution series from 50 μM
[5] = HEK293 TOP reporter cells, Wnt3a at EC50, 16 hours, luciferase
[6] = HEK293 FOP control reporter cell line, 16 hours incubation, compound dilution series 50 μM to 15 nM

SMILES | pIC50 [1, 3] | pIC50 (TNKS2) | pIC50 [1, 5] | pIC50 [2, 4] | pIC50 [2, 6]
CNC(=O)c1nc[nH]c1C(=O)Nc1ccc(NC(=O)c2ccccc2S(C)(=O)=O)cc1 [Example 249, N^4-methyl-N^5-(4-{[2-(methylsulfonyl)benzoyl]amino}phenyl)-1H-imidazole-4,5-dicarboxamide] | 5.62 | 5.24 | – | – | –
CNC(=O)c1nc[nH]c1C(=O)Nc1ccc(NC(=O)c2cccnc2Cl)cc1 [Example 2, N^5-(4-{[(2-chloropyridin-3-yl)carbonyl]amino}phenyl)-N^4-methyl-1H-imidazole-4,5-dicarboxamide] | 5.15 | < 5.00 | 5.21 | ≤ 4.30 | –
CNC(=O)c1nc[nH]c1C(=O)Nc1ccc(NC(=O)c2ccccc2F)cc1 [Example 326, N^5-{4-[(2-fluorobenzoyl)amino]phenyl}-N^4-methyl-1H-imidazole-4,5-dicarboxamide] | 5.52 | < 5.00 | – | – | –
CCNC(=O)c1nc[nH]c1C(=O)Nc1ccc(NC(=O)c2ccc(OC(F)(F)F)cc2F)cc1 [Example 262, N^4-ethyl-N^5-(4-{[2-fluoro-4-(trifluoromethoxy)benzoyl]amino}phenyl)-1H-imidazole-4,5-dicarboxamide] | 5.06 | < 5.00 | – | – | –
CCNC(=O)c1nc[nH]c1C(=O)Nc1ccc(NC(=O)c2ccc(OC(F)F)cc2F)cc1 [Example 258, N^5-(4-{[4-(difluoromethoxy)-2-fluorobenzoyl]amino}phenyl)-N^4-ethyl-1H-imidazole-4,5-dicarboxamide] | 5.35 | < 5.00 | – | – | –
CNC(=O)c1nc[nH]c1C(=O)Nc1ccc(NC(=O)c2cc(C)ccc2C)cc1 [Example 307, N^5-{4-[(2,5-dimethylbenzoyl)amino]phenyl}-N^4-methyl-1H-imidazole-4,5-dicarboxamide] | 5.97 | – | – | – | 4.74
CN1CCN(NC(=O)c2[nH]cnc2C(=O)Nc2ccc(NC(=O)c3ccc(F)cc3Cl)cc2)CC1 [Example 177, N^4-{4-[(2-chloro-4-fluorobenzoyl)amino]phenyl}-N^5-(4-methylpiperazin-1-yl)-1H-imidazole-4,5-dicarboxamide] | 6.20 | – | – | – | 4.77
CNC(=O)c1nc[nH]c1C(=O)Nc1ccc(NC(=O)c2cccc(F)c2F)cc1 [Example 319, N^5-{4-[(2,3-difluorobenzoyl)amino]phenyl}-N^4-methyl-1H-imidazole-4,5-dicarboxamide] | 5.05 | – | – | – | 4.43
CN1CCN(NC(=O)c2[nH]cnc2C(=O)Nc2ccc(NC(=O)c3ccccc3Cl)cc2)CC1 [Example 302, N^4-{4-[(2-chlorobenzoyl)amino]phenyl}-N^5-(4-methylpiperazin-1-yl)-1H-imidazole-4,5-dicarboxamide] | 5.97 | – | – | – | 4.59
CNC(=O)c1nc[nH]c1C(=O)Nc1ccc(NC(=O)c2ccc(N(C)C)cc2)cc1 [Example 315, N^5-(4-{[4-(dimethylamino)benzoyl]amino}phenyl)-N^4-methyl-1H-imidazole-4,5-dicarboxamide] | 4.85 | – | – | – | 4.39

Now from value to molecule, other results behind:

pIC50 [1, 3] | pIC50 (TNKS2) | pIC50 [1, 5] | SMILES | pIC50 [2, 4] | pIC50 [2, 6]
4.92 | – | 4.92 | O=C(Nc1ccc(NC(=O)c2[nH]cnc2C(=O)N2CC3(COC3)C2)cc1)c1ccc(F)cc1 [Example 34, N-{4-[(4-fluorobenzoyl)amino]phenyl}-5-(2-oxa-6-azaspiro[3.3]hept-6-ylcarbonyl)-1H-imidazole-4-carboxamide] | ≤ 4.30 | –
6.25 | – | – | CC1CN(CCNC(=O)c2[nH]cnc2C(=O)Nc2ccc(NC(=O)c3ccccc3Cl)cc2)CC(C)O1 (stereo not shown) [Example 300, N^4-{4-[(2-chlorobenzoyl)amino]phenyl}-N^5-[2-(2,6-dimethylmorpholin-4-yl)-ethyl]-1H-imidazole-4,5-dicarboxamide] | – | 4.51
5.63 | – | – | CCNC(=O)c1[nH]cnc1C(=O)Nc1ccc(NC(=O)c2ccc(F)cc2)cc1 [Example 137, N^5-ethyl-N^4-{4-[(4-fluorobenzoyl)amino]phenyl}-1H-imidazole-4,5-dicarboxamide] | – | 5.10
6.13 | – | – | O=C(Nc1ccc(NC(=O)c2nc[nH]c2C(=O)NCCCN2CCCC2=O)cc1)c1ccc(F)cc1Cl [Example 299, N^4-{4-[(2-chloro-4-fluorobenzoyl)amino]phenyl}-N^5-[3-(2-oxopyrrolidin-1-yl)-propyl]-1H-imidazole-4,5-dicarboxamide] | – | 4.37
5.14 | – | – | CC(C)[C@@H](C)NC(=O)c1[nH]cnc1C(=O)Nc1ccc(NC(=O)c2ccc(F)cc2)cc1 [Example 135, N^4-{4-[(4-fluorobenzoyl)amino]phenyl}-N^5-[(2R)-3-methylbutan-2-yl]-1H-imidazole-4,5-dicarboxamide] | – | 4.66
5.84 | – | – | O=C(Nc1ccc(NC(=O)c2nc[nH]c2C(=O)NCCN2CCCC(O)C2)cc1)c1ccc(F)cc1 (stereo not shown) [Example 167, N^4-{4-[(4-fluorobenzoyl)amino]phenyl}-N^5-[2-(3-hydroxypiperidin-1-yl)ethyl]-1H-imidazole-4,5-dicarboxamide] | – | 4.36
6.11 | – | – | CC1CCCN(CCNC(=O)c2[nH]cnc2C(=O)Nc2ccc(NC(=O)c3ccc(F)cc3)cc2)C1 (stereo not shown) [Example 211, N^4-{4-[(4-fluorobenzoyl)amino]phenyl}-N^5-[2-(3-methylpiperidin-1-yl)ethyl]-1H-imidazole-4,5-dicarboxamide] | – | 4.62
